For one test, the target named is T1, M4 muscarinic receptor (Homo sapiens, UniProt P08173).
T1 construct: expressed in transfected cells; host or cells: CHO (M4-CHO)
T1 sequence (P08173 1-479): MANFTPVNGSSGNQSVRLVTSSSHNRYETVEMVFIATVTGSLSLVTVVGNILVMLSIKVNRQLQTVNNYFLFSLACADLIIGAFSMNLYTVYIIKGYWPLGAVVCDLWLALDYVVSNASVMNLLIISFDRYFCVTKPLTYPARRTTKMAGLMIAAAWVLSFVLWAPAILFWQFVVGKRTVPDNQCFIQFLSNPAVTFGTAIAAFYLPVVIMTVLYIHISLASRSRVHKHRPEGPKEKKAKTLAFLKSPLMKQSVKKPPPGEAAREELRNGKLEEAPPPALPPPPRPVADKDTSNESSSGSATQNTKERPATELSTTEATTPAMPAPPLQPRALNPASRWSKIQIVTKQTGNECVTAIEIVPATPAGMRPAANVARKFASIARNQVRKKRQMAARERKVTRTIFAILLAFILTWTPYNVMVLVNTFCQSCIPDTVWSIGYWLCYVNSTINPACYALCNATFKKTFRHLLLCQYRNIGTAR
As to the kind of experiment: Functional mobilization of intracellular calcium (FLIPR), M4-CHO cells. The test is classed as cell-based. The settings on record: for Emax: 100% efficacy is the maximum response obtained with the Carbachol control; for M4 Activity: CHO cells expressing M4, calcium mobilization. As for the experimental part:
(§1) Functional Mobilization of Intracellular Calcium to Determine Muscarinic Receptor Activity:
(§2) CHO cells expressing muscarinic receptors (M1 to M5) are grown as monolayers in tissue culture flasks at 37° C. in a humidified atmosphere containing 5% CO2 and passaged every 3-5 days. The growth media is Dulbecco's modified eagles medium (DMEM, Gibco Cat#12430-054), containing 25 mM Hepes and supplemented with Fetal Bovine Serum (Hyclone, cat# SH30071.03), 0.1 mM of MEM non-essential amino acids (GIBCO, Cat#11140-050), 1 mM MEM Sodium Pyruvate (GIBCO Cat#11360-070) and 100 units/ml of Penicillin G and 100 μg/ml of Streptomycin (GIBCO Cat#15140-122). The recombinant muscarinic receptor cell lines are grown under antibiotic pressure with media containing 25 μg/ml zeocin and 500 μg/ml G418 (M1-CHO), 4 μg/ml puromycin, 50 μg/ml zeocin and 2.5 μg/ml blasticidin (M2 and M4-CHO) or 50 μg/ml zeocin and 4 μg/ml puromycin (M3 and M5-CHO).
(§3) Cells are harvested at 80-90% confluence using Versene (GIBCO Cat#15040-066), collected by centrifugation and seeded 18-24 hours prior to running the calcium assay at a density of 5,000-10,000 cells/well in […], clear-bottomed 384-well plates (BD Biocoat, poly-D-lysine, Cat#356663). The day of the experiment, the cells are washed with a plate washer (Bioteck Instrunents, ELX 405) using bath 1 buffer (140-mM NaCl, 4.5-mM KCl, 2-mM CaCl2, 1-mM MgCl2, 10-mM Hepes-Na, 10-mM Glucose, pH 7.4, with NaOH) containing 1 mM Probenecid. Next, the calcium dye Fluo-3 (25 μl/well of Fluo-3 AM at 4 μM, Molecular Probes F-1241, in Bath 1 buffer containing 1 mM Probenecid) is added to the 25 μl of Bath 1 remaining in each well after the plate wash and the dye is loaded at 37° C. in the tissue culture incubator for 60-90 min. The fluorescent dye is removed using the plate washer with Bath 1 containing 1 mM Probenecid, leaving 25 μl/well of this solution after the wash. Alternatively, cells can be loaded with the calcium indicator from Molecular Devices (Calcium 3 Assay Reagents, Cat # R7181) adding 5 μl of a 5× solution dye in Bath 1 containing 1 mM Probenecid (10 ml per dye flask cat# R7182 to generate a solution 20×) to 20 μl of the same buffer. After loading for 60 min, the experiment can be run without having to remove the dye.
(§4) Compounds are prepared at a 2× fold concentration in a 96-well plate (round bottom, Costar Corning cat#3656), by reconstituting the pre-spotted compounds in bath 1 containing 1 mM probenecid. The final concentration DMSO is 0.5%, and the amount of DMSO is normalized across the assay plate. To determine an agonist action of the compounds on muscarinic receptors, the reconstituted compounds are added (25 μl compound/well) to the cell assay plate (containing 25 μl/well) using the multi-channel robotic system of the FLIPR 3 Instrument (Molecular Devices, Sunnyvale, Calif.). To determine a functional inhibitory action of the compounds on muscarinic receptors, the reconstituted compounds are added (25 μl compound/well) to the assay plate and pre-incubated for 15 min prior to adding 25 μl of Carbachol at 3× the EC80 for each muscarinic subtype. Alternatively, the compounds can be co-applied simultaneously with the agonist. In both assay modes, the fluorescence is recorded for 60 sec (excitation wavelength is […] and emission wavelength 540 nm) using the FLIPR 3 instrument.
(§5) The potency, efficacy and selectivity of the muscarinic compounds were evaluated by screening the compound activity across the whole family (M1 to M5 cells). Compounds were also screened for activity on other proteins such as other GPCRs and ion channels to determine selectivity on M4 receptors.
(§6) Examples of activities and efficacies of the muscarinic compounds of formulae (I, Ia, Ib, Ic, Id, and Ie) on modulating M1 and M4 receptors are shown below in Table 4. […]
Background: Calcium assays in cells follow changes in intracellular calcium, usually with a dye or a luminescent sensor.

For the next test, the target named is T2, M1 muscarinic receptor (Homo sapiens, UniProt P11229).
T2 construct: expressed in transfected cells; host or cells: CHO (M1-CHO)
T2 sequence (P11229 1-460): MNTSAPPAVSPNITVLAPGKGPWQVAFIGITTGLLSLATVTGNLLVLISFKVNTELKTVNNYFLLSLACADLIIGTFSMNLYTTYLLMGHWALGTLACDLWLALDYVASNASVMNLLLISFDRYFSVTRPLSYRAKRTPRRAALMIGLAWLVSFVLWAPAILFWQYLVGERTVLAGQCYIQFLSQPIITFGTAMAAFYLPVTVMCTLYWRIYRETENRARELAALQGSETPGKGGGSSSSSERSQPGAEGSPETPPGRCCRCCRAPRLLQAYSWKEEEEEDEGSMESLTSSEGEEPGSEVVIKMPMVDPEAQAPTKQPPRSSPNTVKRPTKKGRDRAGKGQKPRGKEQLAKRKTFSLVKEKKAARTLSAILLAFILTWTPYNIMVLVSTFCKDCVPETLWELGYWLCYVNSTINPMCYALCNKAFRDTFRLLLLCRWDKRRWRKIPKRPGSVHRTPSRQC
The experiment in a line: Functional mobilization of intracellular calcium (FLIPR), M1-CHO cells. The test is classed as cell-based. The settings on record: for Emax: 100% efficacy is the maximum response obtained with the Carbachol control; for M1 Activity: CHO cells expressing M1, calcium mobilization. As for the experimental part:
as §1, §2, §3, §4, §5, §6

The term Emax denotes the greatest response seen or fitted, relative to the assay's reference.

Structures are written as SMILES.

`CC(=O)N1CCC2(CCN(C3CCN(c4nncs4)CC3)CC2)c2ccccc21` [compound 23]: at M4 muscarinic receptor, the Emax was 25 to 100% and the “M4 Activity” value was “++ (activity was measured to be from 2.0 μM to 10.0 μM)”. In addition, on M1 muscarinic receptor, the Emax was 25 to 100% and the “M1 Activity” value was “++ (activity was measured to be from 2.0 μM to 10.0 μM)”.
Regarding `CC(=O)N1CCC2(CCN(C3CCN(c4nccs4)CC3)CC2)c2ccccc21` [compound 24], at M4 muscarinic receptor, the Emax is less than 25% and the “M4 Activity” value is given as “++ (activity was measured to be from 2.0 μM to 10.0 μM)”. In addition, on M1 muscarinic receptor, the maximal effect (Emax) is 25 to 100% and the “M1 Activity” value was “++ (activity was measured to be from 2.0 μM to 10.0 μM)”.
Turning to `CC(=O)N1CCC2(CCN(C3CCN(c4nc(C)cs4)CC3)CC2)c2ccccc21` [compound 25], at M4 muscarinic receptor, the maximal response (Emax) lay in the range of 25 to 100% and the “M4 Activity” value is on record as “++ (activity was measured to be from 2.0 μM to 10.0 μM)”. Moreover, on M1 muscarinic receptor, the Emax fell in the range of 25 to 100% and the “M1 Activity” value is reported as “++ (activity was measured to be from 2.0 μM to 10.0 μM)”.
In the case of `COC(=O)N1C2CCC1CC(N1CCC3(CCN(C(=O)N(C)C)c4ccccc43)CC1)C2` (centres unmarked) [compound 26], at M4 muscarinic receptor, the Emax is 25 to 100% and the “M4 Activity” value is “+++ (activity was measured to be less than 2.0 μM)”. Also, at M1 muscarinic receptor, the maximum response (Emax) is 25 to 100% and the “M1 Activity” value is listed as “++ (activity was measured to be from 2.0 μM to 10.0 μM)”.
`CCOC(=O)N1C2CCC1CC(N1CCC3(CCN(C(=O)N(C)C)c4ccccc43)CC1)C2` (centres unmarked) [compound 27]: at M4 muscarinic receptor, the Emax is 25 to 100% and the “M4 Activity” value is “+++ (activity was measured to be less than 2.0 μM)”. Further, at M1 muscarinic receptor, the Emax is 25 to 100% and the “M1 Activity” value is given as “+++ (activity was measured to be less than 2.0 μM)”.
Take `CC#CCOC(=O)N1C2CCC1CC(N1CCC3(CCN(C(=O)N(C)C)c4ccccc43)CC1)C2` (centres unmarked) [compound 29]: at M4 muscarinic receptor, the Emax was 25 to 100% and the “M4 Activity” value was “+++ (activity was measured to be less than 2.0 μM)”. For the same molecule, on M1 muscarinic receptor, the Emax is greater than 100% and the “M1 Activity” value is on record as “+++ (activity was measured to be less than 2.0 μM)”.
With `CN(C)C(=O)N1CCC2(CCN(C3CC4CCC(C3)N4c3cnccn3)CC2)c2ccccc21` (centres unmarked) [compound 30], at M4 muscarinic receptor, the maximal effect (Emax) was in the range of 25 to 100% and the “M4 Activity” value is listed as “+++ (activity was measured to be less than 2.0 μM)”. Besides, at M1 muscarinic receptor, the Emax lay within 25 to 100% and the “M1 Activity” value is given as “+++ (activity was measured to be less than 2.0 μM)”.
Turning to `Cc1nsc(N2C3CCC2CC(N2CCC4(CCN(C(=O)N(C)C)c5ccccc54)CC2)C3)n1` (centres unmarked) [compound 31], on M4 muscarinic receptor, the maximal effect (Emax) lay within 25 to 100% and the “M4 Activity” value is recorded as “+++ (activity was measured to be less than 2.0 μM)”. At M1 muscarinic receptor, the Emax lay in the range of 25 to 100% and the “M1 Activity” value is “+++ (activity was measured to be less than 2.0 μM)”.
Turning to `CN(C)C(=O)N1CCC2(CCN(C3CCNCC3)CC2)c2ccccc21` [compound 33], on M4 muscarinic receptor, the Emax is less than 25% and the “M4 Activity” value is recorded as “+ (activity was measured to be greater than 10.0 μM)”. Further, at M1 muscarinic receptor, the Emax is less than 25% and the “M1 Activity” value is “+ (activity was measured to be greater than 10.0 μM)”.
Turning to `CC(=O)N1CCC2(CCN(C3CCNCC3)CC2)c2ccccc21` [compound 34], at M4 muscarinic receptor, the Emax was less than 25% and the “M4 Activity” value is reported as “++ (activity was measured to be from 2.0 μM to 10.0 μM)”. Besides, at M1 muscarinic receptor, the Emax is less than 25% and the “M1 Activity” value is “+ (activity was measured to be greater than 10.0 μM)”.
With `CN(C)C(=O)N1CCC2(CCN(C3CCN(c4nccs4)CC3)CC2)c2ccccc21` [compound 35], at M4 muscarinic receptor, the Emax is less than 25% and the “M4 Activity” value is reported as “++ (activity was measured to be from 2.0 μM to 10.0 μM)”. In addition, on M1 muscarinic receptor, the Emax is less than 25% and the “M1 Activity” value is listed as “++ (activity was measured to be from 2.0 μM to 10.0 μM)”.
On to `CC(=O)N1CCC2(CCN(C3CCN(c4ncc(C)s4)CC3)CC2)c2ccccc21` [compound 37], for which, on M4 muscarinic receptor, the maximal response (Emax) is less than 25% and the “M4 Activity” value was “+ (activity was measured to be greater than 10.0 μM)”. At M1 muscarinic receptor, the Emax was less than 25% and the “M1 Activity” value is recorded as “+ (activity was measured to be greater than 10.0 μM)”.
Consider `COC(=O)N1CCC(N2CCC3(CC2)CN(C(=O)N(C)C)c2ccccc23)CC1` [compound 38], for which, on M4 muscarinic receptor, the Emax was in the range of 25 to 100% and the “M4 Activity” value is recorded as “+++ (activity was measured to be less than 2.0 μM)”. At M1 muscarinic receptor, the Emax lay within 25 to 100% and the “M1 Activity” value is listed as “++ (activity was measured to be from 2.0 μM to 10.0 μM)”.
Regarding `CCCOC(=O)N1CCC(N2CCC3(CC2)CN(C(=O)N(C)C)c2ccccc23)CC1` [compound 40], on M4 muscarinic receptor, the Emax lay within 25 to 100% and the “M4 Activity” value is on record as “+++ (activity was measured to be less than 2.0 μM)”. Besides, on M1 muscarinic receptor, the Emax was in the range of 25 to 100% and the “M1 Activity” value is given as “+++ (activity was measured to be less than 2.0 μM)”.
On to `CC(C)OC(=O)N1CCC(N2CCC3(CC2)CN(C(=O)N(C)C)c2ccccc23)CC1` [compound 41], for which, at M4 muscarinic receptor, the maximal effect (Emax) was in the range of 25 to 100% and the “M4 Activity” value is “+++ (activity was measured to be less than 2.0 μM)”. Also, at M1 muscarinic receptor, the Emax fell in the range of 25 to 100% and the “M1 Activity” value is given as “+++ (activity was measured to be less than 2.0 μM)”.
In the case of `CN(C)C(=O)N1CC2(CCN(C3CCN(C(=O)OCC(F)F)CC3)CC2)c2ccccc21` [compound 42], on M4 muscarinic receptor, the Emax was 25 to 100% and the “M4 Activity” value is listed as “+++ (activity was measured to be less than 2.0 μM)”. Besides, on M1 muscarinic receptor, the Emax lay within 25 to 100% and the “M1 Activity” value was “+++ (activity was measured to be less than 2.0 μM)”.
As for `COCCOC(=O)N1CCC(N2CCC3(CC2)CN(C(=O)N(C)C)c2ccccc23)CC1` [compound 43], at M4 muscarinic receptor, the Emax lay in the range of 25 to 100% and the “M4 Activity” value is on record as “+++ (activity was measured to be less than 2.0 μM)”. For the same molecule, on M1 muscarinic receptor, the Emax was 25 to 100% and the “M1 Activity” value is recorded as “+++ (activity was measured to be less than 2.0 μM)”.

The values are drawn from US8263605B2, “Modulators of muscarinic receptors” (Vertex Pharmaceutical Incorporated, priority 2006, dated 2012).
